Experimental data from patent US9169254B2, “Spiroimidazolone derivative” (Chugai Seiyaku Kabushiki Kaisha, priority 2009, dated 2015).

Target: T1, human PTH1 receptor (Homo sapiens, UniProt Q03431)
T1 sequence (Q03431 27-593): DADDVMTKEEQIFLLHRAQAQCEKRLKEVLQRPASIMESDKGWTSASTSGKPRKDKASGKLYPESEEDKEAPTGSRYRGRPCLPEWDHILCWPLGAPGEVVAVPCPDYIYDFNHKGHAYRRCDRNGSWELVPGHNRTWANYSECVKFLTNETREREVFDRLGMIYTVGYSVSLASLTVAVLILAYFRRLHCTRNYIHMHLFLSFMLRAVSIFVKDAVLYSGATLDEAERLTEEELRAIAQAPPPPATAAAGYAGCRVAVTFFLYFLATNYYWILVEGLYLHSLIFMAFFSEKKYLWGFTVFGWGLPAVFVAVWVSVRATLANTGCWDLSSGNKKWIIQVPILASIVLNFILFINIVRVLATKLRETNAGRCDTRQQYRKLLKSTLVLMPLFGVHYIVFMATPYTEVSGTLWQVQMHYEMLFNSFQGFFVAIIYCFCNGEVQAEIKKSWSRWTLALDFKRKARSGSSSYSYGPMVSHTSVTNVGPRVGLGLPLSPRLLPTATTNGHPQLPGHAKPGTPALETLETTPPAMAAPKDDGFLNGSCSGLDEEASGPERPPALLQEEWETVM
Assay: In vitro cAMP signal activity in HKRK-B7 cells (LLC-PK1 cells overexpressing the human PTH1 receptor)
Format: cell-based
Conditions: HKRK-B7 cells; compound at 1×10^−3 M; […]; 0.1 µM

Row | Compound | cAMP production activity (%)
1 | O=C(Nc1ccccc1)c1ccccc1S(=O)(=O)N1CCC2(CC1)N=C(C1CCCCC1)NC2=O [Compound 957, 2-(2-Cyclohexyl-4-oxo-1,3,8-triaza-spiro[4.5]dec-1-ene-8-sulfonyl)-N-phenyl-benzamide] | 17

Same assay, conditions: HKRK-B7 cells; compound at 1×10^−3 M; cAMP produced as percentage of that produced by hPTH(1-34) at 100 nM

Row | Compound | cAMP production activity (%)
2 | O=C1NC(C2CCCCC2)=NC12CCN(S(=O)(=O)CCc1ccc3c(ccn3C[C@H](O)CO)c1)CC2 [Compound 872, 2-cyclohexyl-8-{2-[1-((S)-2,3-dihydroxy-propyl)-1H-indol-5-yl]-ethanesulfonyl}-1,3,8-triaza-spiro[4.5]dec-1-en-4-one] | 109
3 | Cc1cc(C(=O)N(C)C)ccc1CCS(=O)(=O)N1CCC2(CC1)N=C(Cc1cccc(C(F)(F)F)c1)NC2=O [Compound 135, 3,N,N-trimethyl-4-{2-[4-oxo-2-(3-trifluoromethyl-benzyl)-1,3,8-triaza-spiro[4.5]dec-1-ene-8-sulfonyl]-ethyl}-benzamide] | 67
4 | O=C1NC(C2CCCCC2)=NC12CCN(S(=O)(=O)/C=C/c1ccc(CCO)cc1)CC2 [Compound 187, 2-cyclohexyl-8-{(E)-2-[4-(2-hydroxy-ethyl)-phenyl]-ethenesulfonyl}-1,3,8-triaza-spiro[4.5]dec-1-en-4-one] | 12
5 | Cc1cc2ccc1CCS(=O)(=O)N1CCC3(CC1)N=C(NC3=O)c1cc(cc(C(F)(F)F)c1)OCCCCCCOCCN(C)C2=O [Compound 1437] | 57
6 | Cc1cnc(C2=NC3(CCN(S(=O)(=O)CCc4ccc(C(=O)N(C)C)cc4C)CC3)C(=O)N2)cn1 [Compound 120, 3,N,N-trimethyl-4-{2-[2-(5-methyl-pyrazin-2-yl)-4-oxo-1,3,8-triaza-spiro[4.5]dec-1-ene-8-sulfonyl]-ethyl}-benzamide] | 3.1
7 | Cc1cc(C(=O)N2CCC(C)(O)CC2)cc(C)c1/C=C/S(=O)(=O)N1CCC2(CC1)N=C(c1ccc(C(F)(F)C(F)(F)F)cc1)NC2=O [Compound 1195, 8-{(E)-2-[4-(4-hydroxy-4-methyl-piperidine-1-carbonyl)-2,6-dimethyl-phenyl]-ethenesulfonyl}-2-(4-pentafluoroethyl-phenyl)-1,3,8-triaza-spiro[4.5]dec-1-en-4-one] | 82
8 | Cc1cc(N(C)C(N)=O)cc(C)c1/C=C/S(=O)(=O)N1CCC2(CC1)N=C(CCCCCCCCCO)NC2=O [Compound 1309, 1-(4-{(E)-2-[2-(9-hydroxy-nonyl)-4-oxo-1,3,8-triaza-spiro[4.5]dec-1-ene-8-sulfonyl]-vinyl}-3,5-dimethyl-phenyl)-1-methyl-urea] | 109
9 | Cc1cc(N2COCC2=O)ccc1CCS(=O)(=O)N1CCC2(CC1)N=C(C1CCC(C)CC1)NC2=O (stereo not drawn) [Compound 866, 2-(4-methyl-cyclohexyl)-8-{2-[2-methyl-4-(4-oxo-oxazolidin-3-yl)-phenyl]-ethanesulfonyl}-1,3,8-triaza-spiro[4.5]dec-1-en-4-one] | 47
10 | O=C(CCCOCc1ccccc1)N1CCCC(C2=NC3(CCN(S(=O)(=O)CCc4cccc5ccccc45)CC3)C(=O)N2)C1 (stereo not drawn) [Compound 436, 2-[1-(4-benzyloxy-butyryl)-piperidin-3-yl]-8-(2-naphthalen-1-yl-ethanesulfonyl)-1,3,8-triaza-spiro[4.5]dec-1-en-4-one] | 28
11 | O=C1NC(C2CCCCC2)=NC12CCN(S(=O)(=O)/C=C/c1cccc3c1ccn3CCCCO)CC2 [Compound 478, 2-cyclohexyl-8-{(E)-2-[1-(4-hydroxy-butyl)-1H-indol-4-yl]-ethenesulfonyl}-1,3,8-triaza-spiro[4.5]dec-1-en-4-one] | 33
12 | Cc1cc(N2C[C@H](O)CC2=O)ccc1/C=C/S(=O)(=O)N1CCC2(CC1)N=C(c1cccc(C(F)(F)F)c1)NC2=O [Compound 220, 8-{(E)-2-[4-((R)-4-hydroxy-2-oxo-pyrrolidin-1-yl)-2-methyl-phenyl]-ethenesulfonyl}-2-(3-trifluoromethyl-phenyl)-1,3,8-triaza-spiro[4.5]dec-1-en-4-one] | 80
13 | Cc1cc(C(=O)N(C)C)ccc1CCS(=O)(=O)N1CCC2(CC1)N=C(c1cccc(C(F)(F)F)c1F)NC2=O [Compound 116, 4-{2-[2-(2-fluoro-3-trifluoromethyl-phenyl)-4-oxo-1,3,8-triaza-spiro[4.5]dec-1-ene-8-sulfonyl]-ethyl}-3,N,N-trimethyl-benzamide] | 94
14 | Cc1cc(C(=O)N(C)C)ccc1CCS(=O)(=O)N1CCC2(CC1)N=C(c1cccc(-c3c(C)noc3C)c1)NC2=O [Compound 171, 4-(2-{2-[3-(3,5-Dimethyl-isoxazol-4-yl)-phenyl]-4-oxo-1,3,8-triaza-spiro[4.5]dec-1-ene-8-sulfonyl}-ethyl)-3,N,N-trimethyl-benzamide] | 36
15 | CCCCCc1ccc(C2=NC3(CCN(S(=O)(=O)CCc4c(C)cc(N(C)C(N)=O)cc4C)CC3)C(=O)N2)cc1OC [Compound 1354, 1-(4-{2-[2-(3-methoxy-4-pentyl-phenyl)-4-oxo-1,3,8-triaza-spiro[4.5]dec-1-ene-8-sulfonyl]-ethyl}-3,5-dimethyl-phenyl)-1-methyl-urea] | 128
16 | Cc1cc(C(=O)NN)cc(C)c1CCS(=O)(=O)N1CCC2(CC1)N=C(C1CCC(CCC(F)(F)F)CC1)NC2=O (stereo not drawn) [Compound 1385, 3,5-dimethyl-4-(2-{4-oxo-2-[4-(3,3,3-trifluoro-propyl)-cyclohexyl]-1,3,8-triaza-spiro[4.5]dec-1-ene-8-sulfonyl}-ethyl)-benzoic acid hydrazide] | 92
17 | Cc1cc(C(=O)N(C)C)cc(C)c1/C=C/S(=O)(=O)N1CCC2(CC1)N=C(c1cccc(C(F)(F)F)c1)NC2=O [Compound 383, 3,5,N,N-Tetramethyl-4-{(E)-2-[4-oxo-2-(3-trifluoromethyl-phenyl)-1,3,8-triaza-spiro[4.5]dec-1-ene-8-sulfonyl]-vinyl}-benzamide] | 72
18 | Cc1cc(N(C)C(=O)CO)ccc1CCS(=O)(=O)N1CCC2(CC1)N=C(c1cccc(OC(F)(F)F)c1)NC2=O [Compound 300, 2-hydroxy-N-methyl-N-(3-methyl-4-{2-[4-oxo-2-(3-trifluoromethoxy-phenyl)-1,3,8-triaza-spiro[4.5]dec-1-ene-8-sulfonyl]-ethyl}-phenyl)-acetamide] | 73
19 | CCC[C@H]1CC[C@H](C2=NC3(CCN(S(=O)(=O)c4cccc(Cl)c4)CC3)C(=O)N2)CC1 [Compound 21, 8-(3-chloro-benzenesulfonyl)-2-(4-propyl-cyclohexyl)-1,3,8-triaza-spiro[4.5]dec-1-en-4-one] | 42
20 | Cc1cc(N2C(=O)CNC2=O)c(C)cc1/C=C/S(=O)(=O)N1CCC2(CC1)N=C(C1CCC(C)CC1)NC2=O (stereo not drawn) [Compound 581, 3-(2,5-dimethyl-4-{(E)-2-[2-(4-methyl-cyclohexyl)-4-oxo-1,3,8-triaza-spiro[4.5]dec-1-ene-8-sulfonyl]-vinyl}-phenyl)-imidazolidine-2,4-dione] | 75
21 | CCc1cccc(NS(=O)(=O)N2CCC3(CC2)N=C(C2CCCCC2)NC3=O)c1 [Compound 177, 2-Cyclohexyl-4-oxo-1,3,8-triaza-spiro[4.5]dec-1-ene-8-sulfonic (3-ethylphenyl)amide] | 28
22 | COCCC1CCC(C2=NC3(CCN(S(=O)(=O)CCc4ccc(C(=O)N(C)C)cc4C)CC3)C(=O)N2)CC1 (stereo not drawn) [Compound 902, 4-(2-{2-[4-(2-Methoxy-ethyl)-cyclohexyl]-4-oxo-1,3,8-triaza-spiro[4.5]dec-1-ene-8-sulfonyl}-ethyl)-3,N,N-trimethyl-benzamide] | 67
23 | Cc1cc(C(=O)N2CCN(CCCN(C)C)CC2)ccc1CCS(=O)(=O)N1CCC2(CC1)N=C(c1cccc(C(F)(F)F)c1)NC2=O [Compound 374, 8-(2-{4-[4-(3-dimethylamino-propyl)-piperazine-1-carbonyl]-2-methyl-phenyl}-ethanesulfonyl)-2-(3-trifluoromethyl-phenyl)-1,3,8-triaza-spiro[4.5]dec-1-en-4-one] | 79
24 | Cc1cc2ccc1CCS(=O)(=O)N1CCC3(CC1)N=C(NC3=O)c1cc(cc(C(F)(F)F)c1)OCC/C=C/COCCN(C)C2=O [Compound 1420] | 20
25 | O=C1NC([C@H]2C[C@H]3CC[C@@H]2C3)=NC12CCN(S(=O)(=O)c1cccc(Cl)c1)CC2 [Compound 22, 2-(1R,2S,4S)-bicyclo[2.2.1]hept-2-yl-8-(3-chloro-benzenesulfonyl)-1,3,8-triaza-spiro[4.5]dec-1-en-4-one] | 43
26 | O=C1NC(C2CCCCC2)=NC12CCN(S(=O)(=O)CCc1cccc3c1ccn3C[C@H](O)CO)CC2 [Compound 309, 2-cyclohexyl-8-{2-[1-((S)-2,3-dihydroxy-propyl)-1H-indol-4-yl]-ethanesulfonyl}-1,3,8-triaza-spiro[4.5]dec-1-en-4-one] | 72
27 | Cc1cc(N2CCNCC2=O)ccc1/C=C/S(=O)(=O)N1CCC2(CC1)N=C(C1CCC(C)CC1)NC2=O (stereo not drawn) [Compound 1285, 2-(4-methyl-cyclohexyl)-8-{(E)-2-[2-methyl-4-(2-oxo-piperazin-1-yl)-phenyl]-ethenesulfonyl}-1,3,8-triaza-spiro[4.5]dec-1-en-4-one] | 67
